# Results taken from ChEMBL document CHEMBL4219043, “Beyond the Rule of 5: Lessons Learned from AbbVie's Drugs and Compound Collection” (J Med Chem, 2018).
# Tests used:
# Hepatitis C virus [1] = experiment: Resistance index, ratio of EC50 for HCV genotype 1b Con1 harboring NS3 D168V mutant infected in human HuH7 replicon cells to EC50 for HCV genotype 1b Con1 harboring wild type NS3 infected in human HuH7 replicon cells; format: functional, Hepacivirus hominis, isolate Con1
# [2] = Half life in dog at 3 mg/kg, po by LC-MS/MS analysis; format: ADME, organism-based, Canis lupus familiaris; conditions: in vivo
# Hepatitis C virus [3] = experiment: Antiviral activity against HCV genotype 1b Con1 infected in human HuH7 replicon cells after 3 days in absence of human plasma by luciferase reporter gene assay; format: functional, organism-based, Hepacivirus hominis; conditions: isolate Con1, Huh-7, 72 h
# Hepatitis C virus [4] = experiment: Antiviral activity against HCV genotype 1b Con1 infected in human HuH7 replicon cells after 3 days in presence of 40% human plasma by luciferase reporter gene assay; format: functional, organism-based, Hepacivirus hominis; conditions: isolate Con1, Huh-7, 72 h
# [5] = Ratio of EC50 for HCV genotype 3a infected in human HuH7 replicon cells to EC50 for HCV genotype 1a H77 infected in human HuH7 replicon cells; format: functional
# Hepatitis C virus [6] = experiment: Ratio of EC50 in presence of 40% human plasma to EC50 in absence of human plasma for HCV genotype 1a H77 infected in human HuH7 replicon cells; format: functional, Hepacivirus hominis
# [7] = Half life in po dosed rat by LC-MS/MS analysis; format: ADME, organism-based; conditions: in vivo
# [8] = Plasma clearance in dog at 1 mg/kg, iv by LC-MS/MS analysis; format: ADME, organism-based, Canis lupus familiaris
# Hepatitis C virus [9] = experiment: Resistance index, ratio of EC50 for HCV genotype 1b Con1 harboring NS3 R155K mutant infected in human HuH7 replicon cells to EC50 for HCV genotype 1b Con1 harboring wild type NS3 infected in human HuH7 replicon cells; format: functional, Hepacivirus hominis, isolate Con1
# [10] = Apparent permeability of the compound by PAMPA; format: ADME
# [11] = Plasma clearance in iv dosed rat by LC-MS/MS analysis; format: ADME, organism-based
# Hepatitis C virus [12] = experiment: Antiviral activity against HCV genotype 1a H77 harboring NS3 D168V mutant infected in human HuH7 replicon cells after 3 days by luciferase reporter gene assay; format: functional, organism-based, Hepacivirus hominis; conditions: genotype 1a H77, Huh-7, 72 h
# Hepatitis C virus [13] = experiment: Antiviral activity against HCV genotype 1b Con1 harboring NS3 D168V mutant infected in human HuH7 replicon cells after 3 days by luciferase reporter gene assay; format: functional, organism-based, Hepacivirus hominis; conditions: isolate Con1, Huh-7, 72 h
# Hepatitis C virus [14] = experiment: Antiviral activity against HCV genotype 1a H77 infected in human HuH7 replicon cells after 3 days in presence of 40% human plasma by luciferase reporter gene assay; format: functional, organism-based, Hepacivirus hominis; conditions: genotype 1a H77, Huh-7, 72 h
# Hepatitis C virus [15] = experiment: Resistance index, ratio of EC50 for HCV genotype 1a H77 harboring NS3 R155K mutant infected in human HuH7 replicon cells to EC50 for HCV genotype 1a H77 harboring wild type NS3 infected in human HuH7 replicon cells; format: functional, Hepacivirus hominis
# Rattus norvegicus = experiment: Dose normalized AUC in po dosed rat after 24 hrs by LC-MS/MS analysis; format: ADME, organism-based; conditions: in vivo
# Hepatitis C virus [16] = experiment: Antiviral activity against HCV genotype 1a H77 harboring NS3 R155K mutant infected in human HuH7 replicon cells after 3 days by luciferase reporter gene assay; format: functional, organism-based, Hepacivirus hominis; conditions: genotype 1a H77, Huh-7, 72 h
# [17] = Half life in dog at 1 mg/kg, iv by LC-MS/MS analysis; format: ADME, organism-based, Canis lupus familiaris; conditions: in vivo
# Canis familiaris [18] = experiment: Fraction of drug absorbed into portal vein in dog at 3 mg/kg, po by LC-MS/MS analysis; format: ADME, organism-based, Canis lupus familiaris; conditions: in vivo
# [19] = Solubility in pH 7.2 buffer; format: physicochemical
# Hepatitis C virus [20] = experiment: Antiviral activity against HCV genotype 1a H77 infected in human HuH7 replicon cells after 3 days in absence of human plasma by luciferase reporter gene assay; format: functional, organism-based, Hepacivirus hominis; conditions: genotype 1a H77, Huh-7, 72 h
# Hepatitis C virus [21] = experiment: Antiviral activity against HCV genotype 3a infected in human HuH7 replicon cells after 3 days in absence of human plasma by luciferase reporter gene assay; format: functional, organism-based, Hepacivirus hominis; conditions: Huh-7, 72 h
# Hepatitis C virus [22] = experiment: Resistance index, ratio of EC50 for HCV genotype 1a H77 harboring NS3 D168V mutant infected in human HuH7 replicon cells to EC50 for HCV genotype 1a H77 harboring wild type NS3 infected in human HuH7 replicon cells; format: functional, Hepacivirus hominis
# [23] = Half life in iv dosed rat by LC-MS/MS analysis; format: ADME, organism-based; conditions: in vivo
# [24] = Oral bioavailability in rat by LC-MS/MS analysis; format: ADME, organism-based; conditions: in vivo
# Canis familiaris [25] = experiment: Dose normalized AUC in dog at 3 mg/kg, po after 24 hrs by LC-MS/MS analysis; format: ADME, organism-based, Canis lupus familiaris; conditions: in vivo
# MOLT-4 = experiment: Antiproliferative activity against human MOLT4 cells in presence of 10% human serum; format: functional, cell-based
# [26] = Oral bioavailability in dog; format: ADME, organism-based, Canis lupus familiaris; conditions: in vivo
# RS4-11 = experiment: Antiproliferative activity against human RS4:11 cells in presence of 10% human serum; format: functional, cell-based
# [27] = molecular target: Apoptosis regulator Bcl-2 (Homo sapiens, UniProt P10415); experiment: Inhibition of Bcl2 (unknown origin)
# [28] = Apparent permeability of the compound in human Caco2 cells; format: ADME, cell-based; conditions: Caco-2
# Hepatitis C virus [29] = experiment: Antiviral activity against HCV genotype 1b Con1 harboring NS3 R155K mutant infected in human HuH7 replicon cells after 3 days by luciferase reporter gene assay; format: functional, organism-based, Hepacivirus hominis; conditions: isolate Con1, Huh-7, 72 h
# Canis familiaris [30] = experiment: (§1) Oral bioavailability in dog at 3 mg/kg by LC-MS/MS analysis; format: ADME, organism-based, Canis lupus familiaris; conditions: in vivo
# [31] = as §1; format: ADME, organism-based, Canis lupus familiaris; conditions: in vivo
# Apoptosis regulator Bcl-2, sequence (P10415 whole entry): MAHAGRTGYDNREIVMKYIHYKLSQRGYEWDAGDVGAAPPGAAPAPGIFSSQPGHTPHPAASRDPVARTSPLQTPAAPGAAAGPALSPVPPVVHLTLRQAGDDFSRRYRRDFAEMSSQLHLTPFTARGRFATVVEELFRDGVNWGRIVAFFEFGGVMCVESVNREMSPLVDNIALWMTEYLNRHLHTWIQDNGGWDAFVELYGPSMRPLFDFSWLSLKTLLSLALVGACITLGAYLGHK
compound,measurement,setting,value
Cc1cc(C(=O)N[C@H]2CCCCC/C=C\[C@@H]3C[C@@]3(C(=O)NS(=O)(=O)C3CC3)NC(=O)[C@@H]3C[C@@H](Oc4nc5cc(F)ccc5nc4C(F)(F)F)CN3C2=O)no1,Ratio EC50,Hepatitis C virus [1],5
same,half-life,[2],132 min
same,EC50,Hepatitis C virus [3],0.5 nM
same,EC50,Hepatitis C virus [4],7 nM
same,Ratio EC50,[5],>80
same,Ratio EC50,Hepatitis C virus [6],6 - 35
same,half-life,[7],114 min
same,clearance,[8],0.667 mL/min/kg
same,Ratio EC50,Hepatitis C virus [9],1
same,Papp,[10],5.1 ×10⁻⁶ cm/s
same,clearance,[11],38.3 mL/min/kg
same,EC50,Hepatitis C virus [12],14 nM
same,EC50,Hepatitis C virus [13],1.5 nM
same,EC50,Hepatitis C virus [14],7 nM
same,Ratio EC50,Hepatitis C virus [15],3
same,AUC/dose,Rattus norvegicus,0.14 µg·h/mL
same,EC50,Hepatitis C virus [16],0.3 nM
same,half-life,[17],210 min
same,FaFg,Canis familiaris [18],0.8
same,Solubility,[19],155 µM
same,EC50,Hepatitis C virus [20],0.8 nM
same,EC50,Hepatitis C virus [21],64 to 83 nM
same,Ratio EC50,Hepatitis C virus [22],149
same,half-life,[23],126 min
same,bioavailability,[24],28%
same,AUC/dose,Canis familiaris [25],18 µg·h/mL
CC1(C)CCC(c2ccc(Cl)cc2)=C(CN2CCN(c3ccc(C(=O)NS(=O)(=O)c4ccc(N[C@H](CCN5CCOCC5)CSc5ccccc5)c(S(=O)(=O)C(F)(F)F)c4)cc3)CC2)C1 [NAVITOCLAX],EC50,MOLT-4,303 nM
same,bioavailability,[26],48%
same,EC50,RS4-11,112 nM
CO[C@H]1CC[C@H](CNc2ccc(S(=O)(=O)NC(=O)c3ccc(N4CCN(CC5=C(c6ccc(Cl)cc6)CC(C)(C)CC5)CC4)cc3Oc3cnc4[nH]ccc4c3)cc2[N+](=O)[O-])CC1 [A-1211212],Ki,[27],< 0.01 nM
same,EC50,MOLT-4,> 5000 nM
same,EC50,RS4-11,6 nM
CC1(C)CCC(CN2CCN(c3ccc(C(=O)NS(=O)(=O)c4ccc(NCC5CCOCC5)c([N+](=O)[O-])c4)c(Oc4cnc5[nH]ccc5c4)c3)CC2)=C(c2ccc(Cl)cc2)C1 [VENETOCLAX],EC50,MOLT-4,> 5000 nM
same,EC50,RS4-11,8 nM
Cc1cc(C(=O)N[C@H]2CCCCC/C=C\[C@@H]3C[C@@]3(C(=O)NS(=O)(=O)C3CC3)NC(=O)[C@@H]3C[C@@H](Oc4nc5ccccc5nc4C(F)(F)F)CN3C2=O)no1,Ratio EC50,Hepatitis C virus [1],6
same,half-life,[2],90 min
same,EC50,Hepatitis C virus [3],0.4 nM
same,EC50,Hepatitis C virus [4],10 nM
same,Ratio EC50,Hepatitis C virus [6],6 - 35
same,half-life,[7],108 min
same,clearance,[8],5.67 mL/min/kg
same,Ratio EC50,Hepatitis C virus [9],2
same,clearance,[11],3.5 mL/min/kg
same,EC50,Hepatitis C virus [12],33 nM
same,EC50,Hepatitis C virus [13],2 nM
same,EC50,Hepatitis C virus [14],12 nM
same,Ratio EC50,Hepatitis C virus [15],4
same,AUC/dose,Rattus norvegicus,4.75 µg·h/mL
same,EC50,Hepatitis C virus [16],0.4 nM
same,half-life,[17],60 min
same,Papp,[28],5.4 ×10⁻⁶ cm/s
same,FaFg,Canis familiaris [18],1.5
same,Solubility,[19],150 µM
same,EC50,Hepatitis C virus [20],0.5 nM
same,EC50,Hepatitis C virus [29],0.7 nM
same,Ratio EC50,Hepatitis C virus [22],290
same,half-life,[23],72 min
same,bioavailability,[24],99.5%
same,AUC/dose,Canis familiaris [25],6.76 µg·h/mL
same,F,Canis familiaris [30],200%
Cc1cc(C(=O)N[C@H]2CCCCC/C=C\[C@@H]3C[C@@]3(C(=O)NS(=O)(=O)C3CC3)NC(=O)[C@@H]3C[C@@H](Oc4nc5cc(F)ccc5nc4C)CN3C2=O)no1,Ratio EC50,Hepatitis C virus [1],4
same,half-life,[2],120 min
same,EC50,Hepatitis C virus [3],0.8 nM
same,EC50,Hepatitis C virus [4],7 nM
same,Ratio EC50,Hepatitis C virus [6],6 - 35
same,clearance,[8],1.17 mL/min/kg
same,Ratio EC50,Hepatitis C virus [9],2
same,EC50,Hepatitis C virus [12],41 nM
same,EC50,Hepatitis C virus [13],3 nM
same,EC50,Hepatitis C virus [14],11 nM
same,Ratio EC50,Hepatitis C virus [15],7
same,EC50,Hepatitis C virus [16],2 nM
same,half-life,[17],120 min
same,Papp,[28],2.8 ×10⁻⁶ cm/s
same,Solubility,[19],> 500 µM
same,EC50,Hepatitis C virus [20],1.1 nM
same,EC50,Hepatitis C virus [29],1.6 nM
same,Ratio EC50,Hepatitis C virus [22],146
same,AUC/dose,Canis familiaris [25],18 µg·h/mL
same,bioavailability,[31],123%
Cn1ccc(C(=O)N[C@H]2CCCCC/C=C\[C@@H]3C[C@@]3(C(=O)NS(=O)(=O)C3(C)CC3)NC(=O)[C@@H]3C[C@@H](Oc4nc5cc(OC(F)(F)F)ccc5c5ccc(F)cc45)CN3C2=O)n1,Ratio EC50,Hepatitis C virus [1],2
same,half-life,[2],240 min
same,EC50,Hepatitis C virus [3],0.1 nM
same,EC50,Hepatitis C virus [4],3 nM
same,Ratio EC50,[5],<=10
same,Ratio EC50,Hepatitis C virus [6],>30
same,half-life,[7],276 min
same,clearance,[8],0.167 mL/min/kg
same,Ratio EC50,Hepatitis C virus [9],0.5
same,Papp,[10],0.06 ×10⁻⁶ cm/s
same,clearance,[11],18.3 mL/min/kg
same,EC50,Hepatitis C virus [12],3 nM
same,EC50,Hepatitis C virus [14],7 nM
same,Ratio EC50,Hepatitis C virus [15],65
same,AUC/dose,Rattus norvegicus,0.4 µg·h/mL
same,EC50,Hepatitis C virus [16],2 nM
same,half-life,[17],192 min
same,FaFg,Canis familiaris [18],0.8
same,Solubility,[19],0.65 µM
same,EC50,Hepatitis C virus [20],0.2 nM
same,EC50,Hepatitis C virus [29],0.03 nM
same,EC50,Hepatitis C virus [21],0.3 to 0.8 nM
same,Ratio EC50,Hepatitis C virus [22],97
same,half-life,[23],300 min
same,bioavailability,[24],43%
same,AUC/dose,Canis familiaris [25],138 µg·h/mL
same,bioavailability,[31],81%
